Assay results as given in ChEMBL document CHEMBL4665833, “Systematic Study of the Glutathione Reactivity of N-Phenylacrylamides: 2. Effects of Acrylamide Substitution” (J Med Chem, 2020).

Key:
Type in all cases: ADME
[1] = GSH reactivity in pH 7.4 phosphate buffer assessed as change in gibbs free energy at 1 uM in presence of glutathione measured up to 120 mins by LC/MS analysis; conditions: pH 7.4, 2 h
[2] = GSH reactivity in pH 7.4 phosphate buffer assessed as pseudo first-order rate constant at 1 uM in presence of glutathione measured up to 120 mins by LC/MS analysis; conditions: pH 7.4, 2 h
[3] = GSH reactivity in pH 7.4 phosphate buffer assessed as half life at 1 uM in presence of glutathione measured up to 120 mins by LC/MS analysis; conditions: phosphate buffer with glutathione

SMILES	deltaG [1] [kcal/mol]	K [2]	half-life at 1 µM [3] [h]
O=C(/C=C/CN1CC(F)(F)C(F)(F)C1)Nc1ccccc1	> 24.7		
O=C(/C=C/CN1CC(F)C1)Nc1ccccc1		< 1.35 10^-3/min	
C=CC(=O)Nc1ccccc1	24.1		
C=C(Cl)C(=O)Nc1ccccc1	21.6	231 10^-3/min	0.05
C=C(CN(C)C)C(=O)Nc1ccccc1	< 21.4		
O=C(/C=C/C(F)F)Nc1ccccc1	23.3		
C=C(C(=O)Nc1ccccc1)C(F)(F)F	22.6		
O=C(/C=C/CN1CCCC1)Nc1ccccc1	24.1		

Other lines, results leading:

deltaG [1] [kcal/mol]	K [2]	half-life at 1 µM [3] [h]	SMILES
23.9			CN(C)C/C=C/C(=O)Nc1ccccc1
24.1			CCN(CC)C/C=C/C(=O)Nc1ccccc1
24.7			CN(C)CC/C=C/C(=O)Nc1ccccc1
	2.13 10^-3/min	5.43	CN(C/C=C/C(=O)Nc1ccccc1)CCF
